Laboratory results published in PMC6547681 (Nature Communications, 2019).

System: BCL-2 G101V
Assay: Steady-state competition SPR against immobilised BIMBH3 peptide, BCL-2 G101V
Format: binding, human
Procedure: SPR experiments were performed as previously described. […] The lowest concentrations used in direct binding experiments were 1 nM for BIAcore 4000 and 0.1 nM for BIAcore S200 instruments, concentrations below these were below the sensitivity thresholds for the instruments. […] Direct binding experiments were fitted to a 1:1 binding site kinetic model, fitting on and off rates, in BIAevaluation software. For competition experiments steady-state responses were determined in BIAevaluation software according to the software defaults in affinity evaluation mode averaging responses for 5 sec. […] All affinity measurements were performed in at least two independent experiments using independent protein preparations.

## O=C(c1cc(-c2cc3c(cc2C(=O)N2Cc4ccccc4C[C@H]2CN2CCOCC2)OCO3)n2c1CCCC2)N(c1ccccc1)c1ccc(O)cc1 [S55746]
BCL-2 G101V
  S55746 binding weaker than venetoclax: > 10 fold
S55746 concentration 20, BCL-2 concentration 10 nM, independent experiment 1
  Raw data values in Figure 3g (SPR response): 59.4981
S55746 concentration 20, BCL-2 concentration 10 nM, independent experiment 2
  Raw data values in Figure 3g (SPR response): 173.158
S55746 concentration 20, BCL-2 concentration 10 nM, independent experiment 3
  Raw data values in Figure 3g (SPR response): 34.4335
S55746 concentration 20, BCL-2 concentration 20 nM, independent experiment 1
  Raw data values in Figure 3g (SPR response): 71.3826
S55746 concentration 20, BCL-2 concentration 20 nM, independent experiment 2
  Raw data values in Figure 3g (SPR response): 232.183
S55746 concentration 20, BCL-2 concentration 20 nM, independent experiment 3
  Raw data values in Figure 3g (SPR response): 41.9552
S55746 concentration 20, BCL-2 concentration 30 nM, independent experiment 1
  Raw data values in Figure 3g (SPR response): 77.2987
S55746 concentration 20, BCL-2 concentration 30 nM, independent experiment 2
  Raw data values in Figure 3g (SPR response): 262.629
S55746 concentration 20, BCL-2 concentration 30 nM, independent experiment 3
  Raw data values in Figure 3g (SPR response): 45.3747
S55746 concentration 20, BCL-2 concentration 40 nM, independent experiment 1
  Raw data values in Figure 3g (SPR response): 80.4228
S55746 concentration 20, BCL-2 concentration 40 nM, independent experiment 2
  Raw data values in Figure 3g (SPR response): 280.533
S55746 concentration 20, BCL-2 concentration 40 nM, independent experiment 3
  Raw data values in Figure 3g (SPR response): 47.3992
S55746 concentration 20, BCL-2 concentration 50 nM, independent experiment 1
  Raw data values in Figure 3g (SPR response): 83.2844
S55746 concentration 20, BCL-2 concentration 50 nM, independent experiment 2
  Raw data values in Figure 3g (SPR response): 293.102
S55746 concentration 20, BCL-2 concentration 50 nM, independent experiment 3
  Raw data values in Figure 3g (SPR response): 48.7371
S55746 concentration 20, BCL-2 concentration 60 nM, independent experiment 1
  Raw data values in Figure 3g (SPR response): 85.1797
S55746 concentration 20, BCL-2 concentration 60 nM, independent experiment 2
  Raw data values in Figure 3g (SPR response): 302.908
S55746 concentration 20, BCL-2 concentration 60 nM, independent experiment 3
  Raw data values in Figure 3g (SPR response): 49.7741
S55746 concentration 20, BCL-2 concentration 70 nM, independent experiment 1
  Raw data values in Figure 3g (SPR response): 86.4751
S55746 concentration 20, BCL-2 concentration 70 nM, independent experiment 2
  Raw data values in Figure 3g (SPR response): 309.956
S55746 concentration 20, BCL-2 concentration 70 nM, independent experiment 3
  Raw data values in Figure 3g (SPR response): 50.4376
S55746 concentration 20, BCL-2 concentration 80 nM, independent experiment 1
  Raw data values in Figure 3g (SPR response): 87.9511
S55746 concentration 20, BCL-2 concentration 80 nM, independent experiment 2
  Raw data values in Figure 3g (SPR response): 316.608
S55746 concentration 20, BCL-2 concentration 80 nM, independent experiment 3
  Raw data values in Figure 3g (SPR response): 51.0592
S55746 concentration 20, BCL-2 concentration 100 nM, independent experiment 1
  Raw data values in Figure 3g (SPR response): 89.5861
S55746 concentration 20, BCL-2 concentration 100 nM, independent experiment 2
  Raw data values in Figure 3g (SPR response): 324.599
S55746 concentration 20, BCL-2 concentration 100 nM, independent experiment 3
  Raw data values in Figure 3g (SPR response): 51.7173
S55746 concentration 20, BCL-2 concentration 150 nM, independent experiment 1
  Raw data values in Figure 3g (SPR response): 91.8559
S55746 concentration 20, BCL-2 concentration 150 nM, independent experiment 2
  Raw data values in Figure 3g (SPR response): 337.351
S55746 concentration 20, BCL-2 concentration 150 nM, independent experiment 3
  Raw data values in Figure 3g (SPR response): 52.8108
S55746 concentration 20, BCL-2 concentration 200 nM, independent experiment 1
  Raw data values in Figure 3g (SPR response): 93.1192
S55746 concentration 20, BCL-2 concentration 250 nM, independent experiment 2
  Raw data values in Figure 3g (SPR response): 349.701
S55746 concentration 20, BCL-2 concentration 250 nM, independent experiment 3
  Raw data values in Figure 3g (SPR response): 53.5404
S55746 concentration 40, BCL-2 concentration 10 nM, independent experiment 1
  Raw data values in Figure 3g (SPR response): 53.0775
S55746 concentration 40, BCL-2 concentration 10 nM, independent experiment 2
  Raw data values in Figure 3g (SPR response): 142.314
S55746 concentration 40, BCL-2 concentration 10 nM, independent experiment 3
  Raw data values in Figure 3g (SPR response): 29.9924
S55746 concentration 40, BCL-2 concentration 20 nM, independent experiment 1
  Raw data values in Figure 3g (SPR response): 66.1797
S55746 concentration 40, BCL-2 concentration 20 nM, independent experiment 2
  Raw data values in Figure 3g (SPR response): 204.771
S55746 concentration 40, BCL-2 concentration 20 nM, independent experiment 3
  Raw data values in Figure 3g (SPR response): 38.5613
S55746 concentration 40, BCL-2 concentration 30 nM, independent experiment 1
  Raw data values in Figure 3g (SPR response): 73.4709
S55746 concentration 40, BCL-2 concentration 30 nM, independent experiment 2
  Raw data values in Figure 3g (SPR response): 240.258
S55746 concentration 40, BCL-2 concentration 30 nM, independent experiment 3
  Raw data values in Figure 3g (SPR response): 42.9042
S55746 concentration 40, BCL-2 concentration 40 nM, independent experiment 1
  Raw data values in Figure 3g (SPR response): 77.7102
S55746 concentration 40, BCL-2 concentration 40 nM, independent experiment 2
  Raw data values in Figure 3g (SPR response): 263.387
S55746 concentration 40, BCL-2 concentration 40 nM, independent experiment 3
  Raw data values in Figure 3g (SPR response): 45.6376
S55746 concentration 40, BCL-2 concentration 50 nM, independent experiment 1
  Raw data values in Figure 3g (SPR response): 81.3114
S55746 concentration 40, BCL-2 concentration 50 nM, independent experiment 2
  Raw data values in Figure 3g (SPR response): 278.636
S55746 concentration 40, BCL-2 concentration 50 nM, independent experiment 3
  Raw data values in Figure 3g (SPR response): 47.2724
S55746 concentration 40, BCL-2 concentration 60 nM, independent experiment 1
  Raw data values in Figure 3g (SPR response): 83.6106
S55746 concentration 40, BCL-2 concentration 60 nM, independent experiment 2
  Raw data values in Figure 3g (SPR response): 291.594
